The target of data set [1] is T1, 5-LO (LTB4) (Rattus norvegicus, UniProt P12527).
T1 construct: An in vivo system involving measuring the effects of a test compound administered orally to a group of male rats; from tissue; host or cells: live male rats, zymosan-inflamed subcutaneous air pouch (endogenous enzyme)
T1 sequence (P12527 1-673): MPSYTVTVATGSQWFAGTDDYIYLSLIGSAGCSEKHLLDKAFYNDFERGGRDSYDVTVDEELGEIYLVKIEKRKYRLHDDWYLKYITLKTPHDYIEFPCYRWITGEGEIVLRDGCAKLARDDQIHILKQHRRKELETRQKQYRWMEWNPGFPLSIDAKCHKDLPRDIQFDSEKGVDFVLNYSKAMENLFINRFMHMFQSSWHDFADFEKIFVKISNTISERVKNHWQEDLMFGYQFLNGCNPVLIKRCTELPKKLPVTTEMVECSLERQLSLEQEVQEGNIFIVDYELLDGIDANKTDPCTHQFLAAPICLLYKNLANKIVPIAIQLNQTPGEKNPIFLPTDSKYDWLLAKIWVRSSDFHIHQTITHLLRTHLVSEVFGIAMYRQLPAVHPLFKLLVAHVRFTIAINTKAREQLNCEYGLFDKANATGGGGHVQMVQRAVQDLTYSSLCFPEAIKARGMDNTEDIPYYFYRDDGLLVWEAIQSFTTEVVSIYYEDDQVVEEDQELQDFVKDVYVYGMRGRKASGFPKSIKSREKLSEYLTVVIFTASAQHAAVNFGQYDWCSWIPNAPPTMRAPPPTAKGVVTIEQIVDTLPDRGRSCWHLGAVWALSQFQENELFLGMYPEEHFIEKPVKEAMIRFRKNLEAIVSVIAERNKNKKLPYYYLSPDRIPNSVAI
Nature of the data set: Test c): in vivo zymosan-induced LTB4 liberation in air pouch of male rats, oral. As to conditions: 3 h; test c). The method, then:
c) An in vivo system involving measuring the effects of a test compound administered orally to a group of male rats against the liberation of LTB4 induced by zymosan within an air pouch generated within the subcutaneous tissue of the back of the rats. The rats are anaesthetised and air pouches are formed by the injection of sterile air (20 ml). A further injection of air (10 ml) is similarly given after 3 days. At 6 days after the initial air injection the test compound is administered (usually orally as the suspension produced when a solution of the test compound in dimethylsulphoxide is added to hydroxypropylmethylcellulose), followed by the intrapouch injection of zymosan (1 ml of a 1% suspension in physiological saline). After 3 hours the rats are killed, the air pouches are lavaged with physiological saline, and the specific radioimmunoassay described above is used to assay LTB4 in the washings. This test provides an indication of inhibitory effects against 5-L0 in an inflammatory milieu.
Test c): oral ED50 (LTB4) in the range, for example, 0.1-100 mg/kg.

The target of data set [2] is T2, 5-LO (LTB4) (Homo sapiens, UniProt P09917).
T2 construct: incubating a test compound with heparinised human blood, prior to challenge with the calcium ionophore A23187; from tissue; host or cells: heparinised human whole blood (endogenous enzyme of blood cells)
T2 sequence (P09917 1-674): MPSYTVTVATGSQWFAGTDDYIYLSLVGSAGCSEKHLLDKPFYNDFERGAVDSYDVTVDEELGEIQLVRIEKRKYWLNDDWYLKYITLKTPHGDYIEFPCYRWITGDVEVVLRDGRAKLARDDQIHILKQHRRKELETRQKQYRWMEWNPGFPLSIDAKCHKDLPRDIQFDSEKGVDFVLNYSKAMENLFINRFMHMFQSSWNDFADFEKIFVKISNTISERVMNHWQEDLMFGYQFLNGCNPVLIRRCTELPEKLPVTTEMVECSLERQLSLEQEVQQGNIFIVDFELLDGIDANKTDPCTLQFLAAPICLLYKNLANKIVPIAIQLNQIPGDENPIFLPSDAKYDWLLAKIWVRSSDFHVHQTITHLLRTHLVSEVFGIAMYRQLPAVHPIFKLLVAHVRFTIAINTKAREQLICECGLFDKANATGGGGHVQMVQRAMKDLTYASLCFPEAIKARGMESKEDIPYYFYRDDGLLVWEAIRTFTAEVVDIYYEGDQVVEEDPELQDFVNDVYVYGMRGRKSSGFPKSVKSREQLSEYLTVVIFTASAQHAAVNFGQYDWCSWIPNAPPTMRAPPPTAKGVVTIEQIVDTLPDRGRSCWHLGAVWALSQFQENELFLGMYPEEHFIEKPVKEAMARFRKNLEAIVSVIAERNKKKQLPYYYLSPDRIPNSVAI
Nature of the data set: Test a): in vitro assay in heparinised human blood challenged with calcium ionophore A23187, LTB4 by radioimmunoassay. The format is cell-based. The method, then: a) An in vitro assay system involving incubating a test compound with heparinised human blood, prior to challenge with the calcium ionophore A23187 and then indirectly measuring the inhibitory effects on 5-L0 by assaying the amount of LTB4 using specific radioimmunoassays described by Carey and Forder (F. Carey and R. A. Forder, Prostaglandins, Leukotrienes Med., 1986, 22, 57; Prostaglandins, 1984, 28, 666; Brit. J. Pharmacol. 1985, 84, 34P) which involve the use of a protein-LTB4 conjugate produced using the procedure of Young et alia (Prostaglandins, 1983, 26(4), 605-613). The effects of a test compound on the enzyme cyclooxygenase (which is involved in the alternative metabolic pathway for arachidonic acid and gives rise to prostaglandins, thromboxanes and related metabolites) may be measured at the same time using the specific radioimmunoassay for thromboxane B2(TxB2) described by Carey and Forder (see above). This test provides an indication of the effects of a test compound against 5-L0 and also cyclooxygenase in the presence of blood cells and proteins. It permits the selectivity of the inhibitory effect on 5-L0 or cyclooxygenase to be assessed.

The test system of another data set is hepatic enzymes. Put plainly: Auto-induction on repeat dosing (decrease in C max or AUC). The class given is in vivo. To be noted: repeated dosing to a warm-blooded animal. An excerpt: The result is a decrease on repeat dosing of the quantity of the compound present in the animal's blood stream as shown, for example, by a decrease in the maximum concentration achieved (C max) or, for example, a decrease in the exposure of the animal to the compound as measured by the area under the curve (AUC) of a plot of the concentration of the compound in the blood stream versus time after dosing.

A short description of data set [3]: Crystallinity / physical form. The format is physicochemical. An excerpt: Such non-crystalline compounds are undesirable when consideration is given toward the preparation, purification, analysis, handling and formulation of larger quantities of the compounds.
In another aspect of the invention we have discovered that certain compounds of the invention are crystalline. The crystalline compounds of the invention are those for which a melting point has been given within the Examples provided hereinafter, for example the compounds of Examples 27 and 28. Thus such compounds are of value when their preparation on a larger scale is required. The purification, analysis and handling of a material is facilitated if it is formed in the crystalline state. It is known, for example, that the removal of solvent residues from non-crystalline, oily materials is problematical. In addition the preparation of a pharmaceutical composition comprising a crystalline material is a conventional procedure. The composition may, for example, be in a form suitable for oral use such as a tablet or capsule; or, for example, in a form suitable for administration by inhalation, for example as a finely divided powder or a microcrystalline form. Such options for the formulation of the material are precluded should it be formed in an oily state.

pIC50: −log10 of the molar value.

Consider `C[C@H]1C[C@@](O)(c2csc(Sc3ccc4c(c3)CCC(=O)N4C)c2)CCO1` [Example 5, (2S,4R)-4-hydroxy-2-methyl-4-[2-(1-methyl-2-oxo-1,2,3,4-tetrahydroquinolin-6-ylthio)thien-4-yl]tetrahydropyran], for which the ED50 – broadly, the dose at which the effect has come halfway, by size or by number of responders – at 5-LO (LTB4) [1] is approximately 0.02 mg/kg. For the same compound, the pIC50 (as a rule, the IC50 on a negative log10 scale, so that one unit is a factor of ten) at 5-LO (LTB4) [2] is 7.52.

For the compound `C[C@H]1C[C@@](O)(c2csc(Sc3ccc4c(c3)CC(=O)N4C)c2)CCO1` [Example 28, (2S,4R)-4-hydroxy-2-methyl-4-[2-(1-methyl-2-oxoindolin-5-ylthio)thien-4-yl]tetrahydropyran], the ED50 at 5-LO (LTB4) [1] was approximately 0.05 mg/kg. Moreover, in the data set with hepatic enzymes, the auto-induction result is “lack to a substantial degree the undesirable property of auto-induction”. In addition, the “crystallinity / physical form” value in data set [3] is given as “crystalline”. Besides, on 5-LO (LTB4) [2], the pIC50 is 7.70.

Consider `CO[C@]1(c2ccc(Sc3ccc4c(c3)CCC(=S)N4C)s2)CCO[C@@H](C)C1` [(2S,4R)-4-methoxy-2-methyl-4-[5-(1-methyl-2-thioxo-1,2,3,4-tetrahydroquinolin-6-ylthio)thien-2-yl]tetrahydropyran, reference compound], for which the “crystallinity / physical form” value in data set [3] was “viscous oil”.

`C[C@H]1C[C@@](O)(c2cc(F)cc(S(=O)(=O)c3ccc4c(c3)CCC(=O)N4C)c2)CCO1` [Example 2, (2S,4R)-4-[5-fluoro-3-(1-methyl-2-oxo-1,2,3,4-tetrahydroquinolin-6-ylsulphonyl)phenyl]-4-hydroxy-2-methyltetrahydropyran]: at 5-LO (LTB4) [1], the ED50 was approximately 0.15 mg/kg. At 5-LO (LTB4) [2], the pIC50 is 7.52.

Turning to `C[C@H]1C[C@@](O)(c2cnc(Sc3ccc4c(c3)CC(=O)N4C)s2)CCO1` [Example 27, (2S,4R)-4-hydroxy-2-methyl-4-[2-(1-methyl-2-oxoindolin-5-ylthio)thiazol-5-yl]tetrahydropyran], the “crystallinity / physical form” value in data set [3] is “crystalline”.

For `COC1(c2ccc(Sc3ccc4c(c3)CCC(=O)N4C)s2)CCOCC1` [4-methoxy-4-[5-(1-methyl-2-oxo-1,2,3,4-tetrahydroquinolin-6-ylthio)thien-2-yl]tetrahydropyran, reference compound], the auto-induction entry in the data set on hepatic enzymes is recorded as “possesses the undesirable property of auto-induction”.

For the compound `C[C@H]1C[C@@](O)(c2csc(S(=O)(=O)c3ccc4c(c3)CCC(=O)N4C)c2)CCO1` [Example 9, (2S,4R)-4-hydroxy-2-methyl-4-[2-(1-methyl-2-oxo-1,2,3,4-tetrahydroquinolin-6-ylsulphonyl)thien-4-yl]tetrahydropyran], the auto-induction result in the data set on hepatic enzymes is listed as “lack to a substantial degree the undesirable property of auto-induction”.

On to `C[C@H]1C[C@@](O)(c2cnc(Sc3ccc4c(c3)CCC(=O)N4C)s2)CCO1` [Example 3, (2S,4R)-4-hydroxy-2-methyl-4-[2-(1-methyl-2-oxo-1,2,3,4-tetrahydro-quinolin-6-ylthio)thiazol-5-yl]tetrahydropyran], for which the ED50 on 5-LO (LTB4) [1] was approximately 0.2 mg/kg. Moreover, the auto-induction result in the data set with hepatic enzymes is recorded as “lack to a substantial degree the undesirable property of auto-induction”. Besides, the pIC50 on 5-LO (LTB4) [2] was 7.30.

(Values after US5478842A, “Ether derivatives having 5-lipoxygenase inhibitory activity” (Zeneca Limited, priority 1993, dated 1995).)
